Assays:
[1] = biological target: T1, 11β-HSD1 in 3T3-L1 adipocytes (Mus musculus, UniProt P50172); assay: 11β-HSD1 activity assay in 3T3-L1 adipocytes; type: cell-based
T1 construct: endogenous in cells; host or cells: 3T3-L1 adipocytes
Method: 11β-HSD1 enzyme inhibition in adipose tissue is believed to be important for achieving efficacy in vivo [11, 12]. Derivatives with potent enzymatic potency and excellent selectivity profiles (13, 14, 17, 28a, 28b and 30) were also evaluated their 11β-HSD1 inhibition in 3T3-L1 adipocyte.
The reductase activity of 11β-HSD1 in intact 3T3-L1 adipocytes was determined by measuring the rate of conversion of cortisone to cortisol. To explore the effect of compounds on 11β-HSD1 reductase activity, 3T3-L1 adipocytes were incubated for 1 h at 37 °C in serum-free DMEM containing 6.25 nmol/L [1,2-(N)^3H]-cortisone and different concentrations of compounds, according to experimental design. 0.1% DMSO was set as the vehicle control and MK544 was set as the positive control. At the end of the incubation, 80 μL of medium was pipetted into a transparent bottom 96-well plate, and 35 μL of SuperBlock Blocking Buffer containing 10 g/L of protein A-coated yttrium silicate beads and 3 mg/L of anti-cortisol antibodies was added. The mixtures were shaken in the dark for 2 h and then used for liquid scintillation readings. The inhibition effect was calculated by the following equation: Inhibition%=Data(compound)-Data(DMSO Vehicle)/Data(MK54410μM)-Data(DMSO Vehicle)×100%.

11β-HSD1 in liver = biological target: T2, 11β-HSD1 in liver (Mus musculus, UniProt P50172); assay: Measurement of 11β-HSD1 activity in liver of ob/ob mice; type: in vivo; conditions: single oral dose 300 mg/kg, 8 h after treatment
T2 construct: from tissue
T2 sequence (P50172 whole entry): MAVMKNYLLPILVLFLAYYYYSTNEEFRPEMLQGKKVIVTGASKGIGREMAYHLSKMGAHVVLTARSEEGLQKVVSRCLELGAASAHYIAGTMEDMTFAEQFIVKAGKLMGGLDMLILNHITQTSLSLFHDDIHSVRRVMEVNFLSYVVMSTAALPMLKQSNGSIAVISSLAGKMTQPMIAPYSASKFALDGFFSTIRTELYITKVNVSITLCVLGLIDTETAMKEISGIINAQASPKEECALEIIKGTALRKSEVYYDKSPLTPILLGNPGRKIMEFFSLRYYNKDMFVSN
Method: After single oral administration of 1, 17 or 30 at dose of 300 mg/kg to ob/ob mice, the enzymatic activity of 11β-HSD1 in liver was measured.
B6.V-Lepob/Lepob mice (Jackson Laboratory, Bar Harbor, ME, USA) were bred at the Shanghai Institute of Materia Medica, Chinese Academy of Sciences. All mice were housed in a specific, pathogen-free class laboratory and were maintained at a controlled room temperature (22–24 °C) under a 12 h light–dark cycle with free access to water and food. The animal experiments were conducted in accordance with the guides by the Institutional Animal Care and Utilization Committee (IACUC) of Shanghai Institute of Materia Medica (SIMM), Chinese Academy of Sciences (CAS). The protocol was approved by the IACUC, SIMM, CAS with accreditation number of 2017-08-LY-67. All animal experiment complied with the ARRIVE guidelines for the care and use of laboratory animals.
Ob/ob mice (10 weeks’ old) were given a single dose of 1, 17, 30 (300 mg/kg) or vehicle (0.5% carboxymethyl cellulose, CMC), p.o. After 4 h and 8 h, animals were euthanized with an i.p injection of sodium pentobarbital (60 mg/kg) and the livers were isolated and stored as described above. The liver tissue was homogenized (1 mg/mL) in cold homogenization buffer, and […] of liver homogenates was used to analyze the 11β-HSD1 activity by SPA, as previously described.

mouse 11β-HSD1 = mouse 11β-HSD1 (Mus musculus, UniProt P50172); assay: scintillation proximity assay (SPA), microsomes of HEK-293 cells transfected with mouse 11β-HSD1
Sequence of mouse 11β-HSD1 (P50172 whole entry): as above
Method: (§1) With diverse tanshinones in hand, inhibition of human and mouse 11β-HSD1 enzymatic potency was measured by scintillation proximity assay (SPA) using microsomes containing 11β-HSD1 [46, 47]. Results are reported as the average of two or three independent experiments at each concentration.
(§2) The SPA was used to screen for inhibitors of 11β-HSDs [48], with the microsome fractions prepared from the HEK-293 cells stably transfected with either human or mouse 11β-HSD1 or 11β-HSD2 as the enzyme source. […] Reactions were initiated by the addition of 11β-HSD1 or 11β-HSD2, enzyme. […] The plates were incubated under plastic film on an orbital shaker for 120 min at room temperature before counting. The amount of [^3H]-cortisol generated in 11β-HSD1 enzyme reaction or remaining from the 11β-HSD2 enzyme reaction was captured by the beads and determined in a microplate liquid scintillation counter. The % inhibition was calculated relative to a non-inhibited control. Data were obtained from two or three independent experiments. IC50 values were calculated from concentration–response curves by a non-linear regression analysis using Prism Version 6.

mouse 11β-HSD2 = biological target: T3, mouse 11β-HSD2 (Mus musculus, UniProt P51661); assay: scintillation proximity assay (SPA), microsomes of HEK-293 cells transfected with mouse 11β-HSD2
T3 sequence (P51661 1-386): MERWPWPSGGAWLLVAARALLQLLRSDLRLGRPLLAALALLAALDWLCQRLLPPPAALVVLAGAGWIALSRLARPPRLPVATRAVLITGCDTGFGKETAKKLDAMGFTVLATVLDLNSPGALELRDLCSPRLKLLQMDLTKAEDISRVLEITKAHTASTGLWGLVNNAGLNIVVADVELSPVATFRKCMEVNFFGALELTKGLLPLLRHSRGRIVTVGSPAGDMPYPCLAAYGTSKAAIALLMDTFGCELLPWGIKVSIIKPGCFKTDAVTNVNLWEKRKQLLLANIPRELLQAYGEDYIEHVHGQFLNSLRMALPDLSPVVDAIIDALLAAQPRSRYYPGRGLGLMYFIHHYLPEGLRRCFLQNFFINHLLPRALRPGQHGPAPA
Method: as §1, §2

human 11β-HSD1 = human 11β-HSD1 (Homo sapiens, UniProt P28845); assay: scintillation proximity assay (SPA), microsomes of HEK-293 cells transfected with human 11β-HSD1
Sequence of human 11β-HSD1 (P28845 whole entry): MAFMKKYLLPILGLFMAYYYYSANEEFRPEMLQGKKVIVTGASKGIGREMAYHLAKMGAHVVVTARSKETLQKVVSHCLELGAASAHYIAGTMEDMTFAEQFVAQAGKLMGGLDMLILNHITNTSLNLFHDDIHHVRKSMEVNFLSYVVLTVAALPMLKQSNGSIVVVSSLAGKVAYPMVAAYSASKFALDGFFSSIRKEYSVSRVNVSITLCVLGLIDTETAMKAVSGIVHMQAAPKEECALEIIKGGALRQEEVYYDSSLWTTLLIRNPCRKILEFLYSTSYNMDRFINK
Method: as §1, §2

human 11β-HSD2 = biological target: T4, human 11β-HSD2 (Homo sapiens, UniProt P80365); assay: scintillation proximity assay (SPA), microsomes of HEK-293 cells transfected with human 11β-HSD2
T4 sequence (P80365 1-405): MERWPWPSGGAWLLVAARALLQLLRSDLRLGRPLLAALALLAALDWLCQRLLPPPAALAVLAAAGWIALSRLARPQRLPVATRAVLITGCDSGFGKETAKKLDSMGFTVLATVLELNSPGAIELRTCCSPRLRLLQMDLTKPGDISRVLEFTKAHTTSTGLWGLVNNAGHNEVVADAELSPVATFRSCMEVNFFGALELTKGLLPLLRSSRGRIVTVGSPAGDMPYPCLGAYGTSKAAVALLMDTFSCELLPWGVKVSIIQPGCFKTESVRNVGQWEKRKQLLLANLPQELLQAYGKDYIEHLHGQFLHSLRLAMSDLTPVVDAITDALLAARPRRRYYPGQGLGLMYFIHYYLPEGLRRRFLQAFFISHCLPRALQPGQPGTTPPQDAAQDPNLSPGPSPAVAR
Method: as §1, §2

T1 sequence (P50172 whole entry): as the sequence (P50172 whole entry) above

In the case of `Cc1coc2c1C(=O)C(=O)c1c-2ccc2c1CCC(=O)C2(C)C` [Compound 17], the IC50 ([1]; 1 h incubation, averages of three determinations, read-out: IC50, cellular assay on 3T3-L1 adipocyte against 11β-HSD1) is reported as 1400 ± 100 nM, the Emax ([1]; inhibition relative to MK544 10 μM, read-out: Max effect) is reported as 90 ± 0.4% and the “decrease in 11β-HSD1 activity in liver” value (11β-HSD1 in liver) is reported as 38.5%. The IC50 (mouse 11β-HSD1) was 6.9 ± 0.7 nM, the “Mouse SI (selectivity index)” value (mouse 11β-HSD1; Table 3, SI = IC50(HSD2)/IC50(HSD1), mouse) was > 14,492.7 and the inhibition at 1 µM (mouse 11β-HSD1; read-out: Inhibitory ratio m-HSD1, at 1.0 μM, averages of three determinations) was 84.6 ± 1.4%. The IC50 (mouse 11β-HSD2) was greater than 100000 nM, the IC50 (human 11β-HSD1) was 210 nM and the “Human SI (selectivity index)” value (human 11β-HSD1; Table 3, SI = IC50(HSD2)/IC50(HSD1), human) was 28.0. For the same molecule, the inhibition at 1 µM (human 11β-HSD1; read-out: Inhibitory ratio h-HSD1, at 1.0 μM, averages of three determinations) was 63.5 ± 3.2% and the IC50 (human 11β-HSD2) was 5900 ± 2300 nM.

Reference: paper PMC9492458, “Development and structure–activity relationships of tanshinones as selective 11β-hydroxysteroid dehydrogenase 1 inhibitors” (Natural Products and Bioprospecting, 2022)
